Experimental data taken from ChEMBL document CHEMBL1201862, “PubChem BioAssay data set” (2004).
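A five-concentration, 48-hour dose response in 96-well plates underlies each endpoint, interpolated linearly between surrounding concentrations. GI50 = concentration required for 50% inhibition of growth.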 Activity calls are given as the source filed them. No stated cut-off is given here; in the data, active = GI50 up to about 1.1 µM and inactive = higher.

Experiments:
Experiment in all cases: NCI tumour cell line growth inhibition, 48 h
786-0 = system: 786-0
A498 = system: A498
ACHN = system: ACHN
CAKI-1 = system: CAKI-1
CCRF-CEM = system: CCRF-CEM
DU-145 = system: DU-145
EKVX = system: EKVX
HCT-116 = system: HCT-116
HCT-15 = system: HCT-15
HL-60 = system: HL-60
HOP-62 = system: HOP-62
HOP-92 = system: HOP-92
HT-29 = system: HT-29
Hs-578T = system: Hs-578T
IGROV-1 = system: IGROV-1
K562 = system: K562
KM12 = system: KM12
LOX IMVI = system: LOX IMVI
M14 = system: M14
MCF7 = system: MCF7
MDA-MB-231 = system: MDA-MB-231
MDA-MB-435 = system: MDA-MB-435
MOLT-4 = system: MOLT-4
NCI-H226 = system: NCI-H226
NCI-H23 = system: NCI-H23
NCI-H460 = system: NCI-H460
NCI-H522 = system: NCI-H522
NCI/ADR-RES = system: NCI/ADR-RES
OVCAR-3 = system: OVCAR-3
OVCAR-4 = system: OVCAR-4
OVCAR-5 = system: OVCAR-5
OVCAR-8 = system: OVCAR-8
PC-3 = system: PC-3
RPMI-8226 = system: RPMI-8226
RXF 393 = system: RXF 393
SF-268 = system: SF-268
SF-295 = system: SF-295
SF-539 = system: SF-539
SK-MEL-28 = system: SK-MEL-28
SK-MEL-2 = system: SK-MEL-2
SK-MEL-5 = system: SK-MEL-5
SK-OV-3 = system: SK-OV-3
SR = system: SR
SW-620 = system: SW-620
T47D = system: T47D
TK-10 = system: TK-10
U-251 = system: U-251
UACC-257 = system: UACC-257
UO-31 = system: UO-31
A549 = system: A549
COLO 205 = system: COLO 205
HCC 2998 = system: HCC 2998
MDA-N = system: MDA-N
Malme-3M = system: Malme-3M
SN12C = system: SN12C
SNB-75 = system: SNB-75
UACC-62 = system: UACC-62
SNB-19 = system: SNB-19

O=C1c2ccccc2C(=O)C2NC(CCCCCSSCCCCCC3=NC4C(=O)c5ccccc5C(=O)C4N3)=NC12 (configuration not stated)
GI50 (786-0): 28.8 µM (inactive)
GI50 (A498): 23.7 µM (inactive)
GI50 (ACHN): 10.4 µM (inactive)
GI50 (CAKI-1): 6.47 µM (inactive)
GI50 (CCRF-CEM): > 100 µM (inactive)
GI50 (DU-145): > 100 µM (inactive)
GI50 (EKVX): > 100 µM (inactive)
GI50 (HCT-116): 14.8 µM (inactive)
GI50 (HCT-15): 40.6 µM
GI50 (HL-60): > 100 µM (inactive)
GI50 (HOP-62): > 100 µM (inactive)
GI50 (HOP-92): 5.56 µM (inactive)
GI50 (HT-29): > 100 µM (inactive)
GI50 (Hs-578T): 25.7 µM (inactive)
GI50 (IGROV-1): 12.9 µM (inactive)
GI50 (K562): > 100 µM (inactive)
GI50 (KM12): 80.9 µM (inactive)
GI50 (LOX IMVI): > 100 µM (inactive)
GI50 (M14): 4.57 µM (inactive)
GI50 (MCF7): > 100 µM (inactive)
GI50 (MDA-MB-231): 96.2 µM (inactive)
GI50 (MDA-MB-435): > 100 µM (inactive)
GI50 (MOLT-4): 3.8 µM (inactive)
GI50 (NCI-H226): > 100 µM (inactive)
GI50 (NCI-H23): 40.2 µM (inactive)
GI50 (NCI-H460): > 100 µM (inactive)
GI50 (NCI-H522): 15 µM (inactive)
GI50 (NCI/ADR-RES): > 100 µM (inactive)
GI50 (OVCAR-3): > 100 µM (inactive)
GI50 (OVCAR-4): > 100 µM (inactive)
GI50 (OVCAR-5): > 100 µM (inactive)
GI50 (OVCAR-8): 45.2 µM (inactive)
GI50 (PC-3): > 100 µM (inactive)
GI50 (RPMI-8226): > 100 µM (inactive)
GI50 (RXF 393): 22.3 µM (inactive)
GI50 (SF-268): 27.3 µM (inactive)
GI50 (SF-295): 4.57 µM (inactive)
GI50 (SF-539): 24.3 µM (inactive)
GI50 (SK-MEL-28): > 100 µM (inactive)
GI50 (SK-MEL-2): > 100 µM (inactive)
GI50 (SK-MEL-5): 19.9 µM (inactive)
GI50 (SK-OV-3): 50.8 µM (inactive)
GI50 (SR): 1.48 µM (inactive)
GI50 (SW-620): 90.8 µM (inactive)
GI50 (T47D): > 100 µM (inactive)
GI50 (TK-10): 68.2 µM (inactive)
GI50 (U-251): 17.6 µM (inactive)
GI50 (UACC-257): 64.3 µM (inactive)
GI50 (UO-31): 7.74 µM (inactive)

CC12CCC3[C@@H](CC3(C)C)C(O)(CCC1=O)C2 (some centres not stated)
GI50 (786-0): > 100 µM (inactive)
GI50 (A549): > 100 µM (inactive)
GI50 (ACHN): > 100 µM (inactive)
GI50 (CAKI-1): > 100 µM (inactive)
GI50 (CCRF-CEM): > 100 µM (inactive)
GI50 (COLO 205): > 100 µM (inactive)
GI50 (DU-145): > 100 µM (inactive)
GI50 (EKVX): > 100 µM (inactive)
GI50 (HCC 2998): > 100 µM (inactive)
GI50 (HCT-116): > 100 µM (inactive)
GI50 (HCT-15): > 100 µM
GI50 (HL-60): > 100 µM (inactive)
GI50 (HOP-62): > 100 µM (inactive)
GI50 (HOP-92): > 100 µM (inactive)
GI50 (HT-29): > 100 µM (inactive)
GI50 (Hs-578T): > 100 µM (inactive)
GI50 (IGROV-1): > 100 µM (inactive)
GI50 (K562): > 100 µM (inactive)
GI50 (KM12): > 100 µM (inactive)
GI50 (LOX IMVI): > 100 µM (inactive)
GI50 (M14): > 100 µM (inactive)
GI50 (MCF7): > 100 µM (inactive)
GI50 (MDA-MB-231): > 100 µM (inactive)
GI50 (MDA-MB-435): > 100 µM (inactive)
GI50 (MDA-N): > 100 µM (inactive)
GI50 (MOLT-4): > 100 µM (inactive)
GI50 (Malme-3M): > 100 µM (inactive)
GI50 (NCI-H226): > 100 µM (inactive)
GI50 (NCI-H23): > 100 µM (inactive)
GI50 (NCI/ADR-RES): > 100 µM (inactive)
GI50 (OVCAR-3): > 100 µM (inactive)
GI50 (OVCAR-4): > 100 µM (inactive)
GI50 (OVCAR-5): > 100 µM (inactive)
GI50 (OVCAR-8): > 100 µM (inactive)
GI50 (PC-3): > 100 µM (inactive)
GI50 (RPMI-8226): > 100 µM (inactive)
GI50 (SF-268): > 100 µM (inactive)
GI50 (SF-295): > 100 µM (inactive)
GI50 (SF-539): > 100 µM (inactive)
GI50 (SK-MEL-28): > 100 µM (inactive)
GI50 (SK-MEL-2): > 100 µM (inactive)
GI50 (SK-MEL-5): > 100 µM (inactive)
GI50 (SK-OV-3): > 100 µM (inactive)
GI50 (SN12C): > 100 µM (inactive)
GI50 (SNB-75): > 100 µM (inactive)
GI50 (SR): > 100 µM (inactive)
GI50 (SW-620): > 100 µM (inactive)
GI50 (T47D): > 100 µM (inactive)
GI50 (TK-10): > 100 µM (inactive)
GI50 (U-251): > 100 µM (inactive)
GI50 (UACC-257): > 100 µM (inactive)
GI50 (UACC-62): > 100 µM (inactive)
GI50 (UO-31): > 100 µM (inactive)

COc1cccc(/C=C/c2ccc(S(N)(=O)=O)cc2)c1
GI50 (786-0): 17.8 µM (inactive)
GI50 (COLO 205): 11.7 µM (inactive)
GI50 (DU-145): 26.1 µM (inactive)
GI50 (EKVX): 11.8 µM (inactive)
GI50 (HCC 2998): 10.5 µM (inactive)
GI50 (HCT-116): 7.36 µM (inactive)
GI50 (HOP-62): 24 µM (inactive)
GI50 (M14): 36.1 µM (inactive)
GI50 (MCF7): 8.07 µM (inactive)
GI50 (MDA-MB-231): 25.1 µM (inactive)
GI50 (MDA-N): 17 µM (inactive)
GI50 (Malme-3M): 23.2 µM (inactive)
GI50 (NCI-H460): 10.3 µM (inactive)
GI50 (NCI/ADR-RES): 23.1 µM (inactive)
GI50 (OVCAR-3): 5.31 µM (inactive)
GI50 (OVCAR-5): 59.4 µM (inactive)
GI50 (PC-3): 22.7 µM (inactive)
GI50 (RXF 393): 5.5 µM (inactive)
GI50 (SF-295): 6.75 µM (inactive)
GI50 (SK-MEL-28): 44 µM (inactive)
GI50 (SK-MEL-2): 5.9 µM (inactive)
GI50 (SK-MEL-5): 17.1 µM (inactive)
GI50 (SK-OV-3): 30.4 µM (inactive)
GI50 (SN12C): 18.2 µM (inactive)
GI50 (SNB-19): 46.6 µM (inactive)
GI50 (SNB-75): 17.4 µM (inactive)
GI50 (T47D): 4.94 µM (inactive)
GI50 (TK-10): 12.5 µM (inactive)
GI50 (UACC-257): 16.4 µM (inactive)
GI50 (UO-31): 18.6 µM (inactive)
